For this experiment, the system named is sporadic PD patient fibroblasts. Put plainly: Cellular ATP levels in sporadic PD patient fibroblasts, Preliminary ATP assay. It counts as cell-based, human. Conditions: for activity at 0.1 µM / activity at 1 µM: Homo sapiens, Fibroblast; for activity at 0.1 µM: read-out: Average ATP Response 100 nM; for activity at 1 µM: read-out: Average ATP Response 1 μM. As to the method:
In some cases, a preliminary ATP protocol was used in which EC50 was not determined. The preliminary ATP protocol is generally as described in Mortiboys et al 2008. Briefly, fibroblasts were cultured and plated into white, clear-bottom 384 well plates at a concentration of 4000 cells per well in 50 μl of media volume. The plates are left overnight in an incubator to allow the fibroblasts to adhere to the plate surface. The following morning the Glucose based medium is replaced with 25 μl of Galactose based medium. The cells were then dosed with 100 nM and 1 μM concentrations of the compounds using a ECHO 550 liquid handling system. After dosing the wells are topped up with a further 25 μl of Galactose based medium and then left in an incubator for 24 hours. Following this incubation, the medium is removed from the plate and the wells are washed twice with sterile PBS. The wells are filled with 20 μl of Sterile PBS followed by 10 μl of Lysis solution from the ATPlite™ Luminescence ATP detection assay system (Perkin Elmer), including 14 cell free wells to use as blank controls. The plate is then placed on a rotary shaker for 10 mins at 700 rpm. Following the shaking 10 μl of ATP substrate solution (Perkin Elmer) is added to each well and a further 5 min of shaking. The plate is then incubated in the dark for 10 minutes prior to reading. Using a FLUOstar® Omega plate reader, luminescence intensity is recorded. Following the ATP assay the plates are immediately assayed for DNA content in a CyQUANT® assay.
Immediately following The ATP assay DNA content is assessed with the CyQUANT® NF Cell Proliferation Assay Kit (ThermoFisher). CyQUANT® buffer is prepared immediately before the assay and is comprised of 2 μl CyQUANT® dye per ml×1 HBSS solution. 10 μl of CyQUANT® buffer is added to each well. Cell plates were then incubated for 1 hour before being read on a FLUOStar® Plate reader with excitation at 497 nm and emission at 520 nm.
The ATP Quantification for each well is determined as set out above.

Setting [1] is: 100 nM, 24 h, % of vehicle treated sPD fibroblasts, 3 sporadic PD patients.
The mark [2] stands for this setting: 1 μM, 24 h, % of vehicle treated sPD fibroblasts, 3 sporadic PD patients.

Consider `C[C@H](CCC(=O)N1CCOCC1)[C@H]1CC[C@H]2[C@@H]3[C@@H](O)C[C@@H]4CNCC[C@]4(C)[C@H]3CC[C@]12C` [Compound 56a, N-(3-Aza-7β-hydroxy-5β-cholan-24-oyl)-morpholine], for which the activity at 0.1 µM under setting [1] amounted to 109%. Further, the activity at 1 µM under setting [2] was 100%.

As for `C[C@H](CCC(=O)N1Cc2ccccc2C1)[C@H]1CC[C@H]2[C@@H]3[C@@H](O)C[C@@H]4CNCC[C@]4(C)[C@H]3CC[C@]12C` [Compound 81a], the activity at 0.1 µM under setting [1] worked out at 94.2%. Under setting [2], the activity at 1 µM was 102%.

As to `C[C@H](CCC(=O)N(C)CC(=O)O)[C@H]1CC[C@H]2[C@@H]3[C@@H](O)C[C@@H]4CNCC[C@]4(C)[C@H]3CC[C@]12C` [Compound 67a, N-Methyl-N-(3-aza-7β-hydroxy-5β-cholan-24-oyl)-glycine], the activity at 0.1 µM under setting [1] is 108%. Besides, the activity at 1 µM under setting [2] stood at 107%.

`CC[C@H](C)[C@H](NC(=O)CC[C@@H](C)[C@H]1CC[C@H]2[C@@H]3[C@@H](O)C[C@@H]4CNCC[C@]4(C)[C@H]3CC[C@]12C)C(=O)O` [Compound 66a, N-(3-Aza-7β-hydroxy-5β-cholan-24-oyl)-(2S,3S)-2-amino-3-methylpentanoic acid]: the activity at 0.1 µM under setting [1] came to 109%. The activity at 1 µM under setting [2] turned out to be 111%.

As for `C[C@H](CCCC(=O)N[C@@H](Cc1ccccc1)C(=O)O)[C@H]1CC[C@H]2[C@@H]3[C@@H](O)C[C@@H]4CNCC[C@]4(C)[C@H]3CC[C@]12C` [Compound 73b, N-(3-Aza-7β-hydroxy-25-homo-5β-cholan-25-oyl)-(S)-2-amino-3-phenylpropanoic acid], the activity at 0.1 µM under setting [1] is 99.6%. For the same molecule, under setting [2], the activity at 1 µM worked out at 100%.

As for `C[C@H](CCC(=O)NCC(F)C(=O)O)[C@H]1CC[C@H]2[C@@H]3[C@@H](O)C[C@@H]4CNCC[C@]4(C)[C@H]3CC[C@]12C` (stereo partly drawn) [Compound 58a, N-(3-Aza-7β-hydroxy-5β-cholan-24-oyl)-3-amino-2-fluoropropanoic acid], the activity at 0.1 µM under setting [1] was found to be 102%. Further, the activity at 1 µM under setting [2] was 103%.

As to `C[C@H](CCC(=O)Nc1ccc(F)cc1)[C@H]1CC[C@H]2[C@@H]3[C@@H](O)C[C@@H]4CN(C)CC[C@]4(C)[C@H]3CC[C@]12C` [Compound 55a, N-(3-Methyl-aza-7β-hydroxy-5β-cholan-24-oyl)-1-amino-4-fluorobenzene], the activity at 0.1 µM under setting [1] was found to be 110%. Besides, the activity at 1 µM under setting [2] was determined as 109%.

Take `C[C@H](CCCC(=O)NC1CCOC1)[C@H]1CC[C@H]2[C@@H]3[C@@H](O)C[C@@H]4CNCC[C@]4(C)[C@H]3CC[C@]12C` (stereo partly drawn) [Compound 82b, N-{(3-aza-7β-hydroxy-25-homo-5β-cholan-25-oyl)}-3-aminotetrahydrofuran]: under setting [1], the activity at 0.1 µM stood at 96.2%. Besides, the activity at 1 µM under setting [2] is 97.5%.

For `C[C@H](CCCC(=O)NCCS(=O)(=O)O)[C@H]1CC[C@H]2[C@@H]3[C@@H](O)C[C@@H]4CNCC[C@]4(C)[C@H]3CC[C@]12C` [Compound 72b, N-(3-Aza-7β-hydroxy-25-homo-5β-cholan-25-amide)-ethylsulfonic acid], the activity at 0.1 µM under setting [1] came out at 102%. Besides, the activity at 1 µM under setting [2] turned out to be 112%.

Take `C[C@H](CCCC(=O)NCCCC[C@H](N)C(=O)O)[C@H]1CC[C@H]2[C@@H]3[C@@H](O)C[C@@H]4CNCC[C@]4(C)[C@H]3CC[C@]12C` [Compound 76b, N-(3-Aza-7β-hydroxy-25-homo-5β-cholan-25-oyl)-(2S)-2,6-diaminohexanoic acid]: the activity at 0.1 µM under setting [1] came to 105%. Further, the activity at 1 µM under setting [2] turned out to be 106%.

On to “S-(3-Aza-7β-hydroxy-5β-cholan-24-oyl)-phenylmethanethiol [Compound 64a]”, for which the “ATP production relative to control levels” value (100 nM) is on record as “returning ATP production to control levels”. Further, the “Average ATP Response 100 nM” value under setting [1] turned out to be 118.2%. Also, under setting [2], the “Average ATP Response 1 μM” value came out at 111.4%.

Take `C[C@H](CCC(=O)NCC(=O)O)[C@H]1CC[C@H]2[C@@H]3[C@@H](O)C[C@@H]4CNCC[C@]4(C)[C@H]3CC[C@]12C` [Compound 52a, N-(3-Aza-7β-hydroxy-5β-cholan-24-amide)-acetic acid]: under setting [1], the activity at 0.1 µM came out at 106%. Moreover, under setting [2], the activity at 1 µM came to 110%.

Regarding `C[C@H](NC(=O)CC[C@@H](C)[C@H]1CC[C@H]2[C@@H]3[C@@H](O)C[C@@H]4CNCC[C@]4(C)[C@H]3CC[C@]12C)C(=O)O` [Compound 68a, N-(3-Aza-7β-hydroxy-5β-cholan-24-oyl)-(S)-2-aminopropanoic acid], the activity at 0.1 µM under setting [1] is 109%. Besides, the activity at 1 µM under setting [2] was determined as 99%.

Regarding `C[C@H](CCC(=O)N(C1CCCCC1)C1CCCCC1)[C@H]1CC[C@H]2[C@@H]3[C@@H](O)C[C@@H]4CN(C)CC[C@]4(C)[C@H]3CC[C@]12C` [Compound 59a, N-(Cyclohexyl)-N-(3-methyl-aza-7β-hydroxy-5β-cholan-24-oyl)-cyclohexanamine], the activity at 0.1 µM under setting [1] was 106%. The activity at 1 µM under setting [2] stood at 99.7%.

The values are drawn from patent US20250320246A1, “3-AZASTEROID COMPOUNDS FOR THE TREATMENT OF DISEASES RELATED TO MITROCHONDRIAL FUNCTION” (NZP UK LIMITED, priority 2022, published 2025).
